# Data: US11883387B2, “PqsR inverse agonists” (HELMHOLTZ-ZENTRUM FÜR INFEKTIONSFORSCHUNG GMBH, priority 2018, dated 2024)
# Biological target: PqsR (Pseudomonas aeruginosa, UniProt Q9I4X0)
# Assay: E. coli based β-galactosidase reporter gene assay (PqsR inverse agonistic activity)
# Format: cell-based
# Design: expressed in transfected cells; host or cells: Escherichia coli DH5α
# Protocol: Inhibition of pqsR-dependent gene expression of test compounds was determined in an E. coli based β-galactosidase reporter gene assay.[19] Escherichia coli DH5α was transfected with pEAL08-2 plasmid encoding pqsR under control of promoter tac and β-galactosidase reporter gene lacZ under control of promoter pqsA. Antagonistic effects of compounds were evaluated in the presence of/in competition to 50 nM PQS. A positive control was used to ensure the reliability of individual assays. First, PQS was diluted in methanol and added to the wells of a glass coated 96-deep-well plate, and the solvent was evaporated. Then, compounds were added in 5 μL DMSO to final concentrations of 0.001-10 μM. Overnight cultures of E. coli DH5a×pEAL08-2 were diluted 1:100 in LB medium with ampicillin (50 μg/ml) and incubated at 37° C. with shaking until it reached an OD600 of 0.2. Finally, 995 μL of culture was added to each well and the p-galactosidase activity was determined by ortho-nitrophenyl-p-galactoside conversion in permeabilized cells after a 2.5 h incubation period (37° C., 180 rpm). OD600, OD420, and OD550 were measured using POLARstar Omega (BMG Labtech, Ortenberg, Germany), and the activity was expressed as ratio of the slope of β-galactosidase activity between basal control (no PQS) and solvent control. IC50 values of antagonists were determined by variation of the concentration of the test compounds.
# PqsR, sequence (Q9I4X0 whole entry): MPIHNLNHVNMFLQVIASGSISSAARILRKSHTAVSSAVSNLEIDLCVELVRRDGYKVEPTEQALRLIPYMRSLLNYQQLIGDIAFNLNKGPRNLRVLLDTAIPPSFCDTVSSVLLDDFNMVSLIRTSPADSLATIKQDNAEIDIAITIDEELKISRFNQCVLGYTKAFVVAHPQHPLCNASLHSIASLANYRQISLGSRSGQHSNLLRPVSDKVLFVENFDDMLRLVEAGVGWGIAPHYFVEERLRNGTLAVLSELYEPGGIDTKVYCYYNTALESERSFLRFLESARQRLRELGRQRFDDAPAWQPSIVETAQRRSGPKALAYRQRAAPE
row,SMILES,IC50
1,"FC(F)(F)c1cc(NCc2cn(-c3cccc(CN4CCOCC4)c3)nn2)ccn1 [Compound 002, N-((1-(3-(Morpholinomethyl)phenyl)-1H-1,2,3-triazol-4-yl)methyl)-2-(trifluoromethyl)pyridin-4-amine]",251 to 1000 nM
2,"FC(F)(F)c1cc(NCc2cn(-c3cccc(Cl)c3)nn2)ccn1 [Compound 003, N-((1-(3-Chlorophenyl)-1H-1,2,3-triazol-4-yl)methyl)-2-(trifluoromethyl)pyridin-4-amine]",51 to 250 nM
3,"FC(F)(F)c1cc(NCc2cn(-c3ccc(Cl)cc3)nn2)ccn1 [Compound 008, N-((1-(4-chlorophenyl)-1H-1,2,3-triazol-4-yl)methyl)-2-(trifluoromethyl)pyridin-4-amine]",51 to 250 nM
4,"Fc1cccc(-n2cc(CNc3ccnc(C(F)(F)F)c3)nn2)c1 [Compound 009, N-((1-(3-Fluorophenyl)-1H-1,2,3-triazol-4-yl)methyl)-2-(trifluoromethyl)pyridin-4-amine]",251 to 1000 nM
5,"Fc1ccc(-n2cc(CNc3ccnc(C(F)(F)F)c3)nn2)cc1 [Compound 010, N-((1-(4-Fluorophenyl)-1H-1,2,3-triazol-4-yl)methyl)-2-(trifluoromethyl)pyridin-4-amine]",51 to 250 nM
6,"FC(F)(F)Oc1cccc(-n2cc(CNc3ccnc(C(F)(F)F)c3)nn2)c1 [Compound 011, N-((1-(3-(Trifluoromethoxy)phenyl)-1H-1,2,3-triazol-4-yl)methyl)-2-(trifluoromethyl)pyridin-4-amine]",51 to 250 nM
7,"N#Cc1ccc(-n2cc(CNc3ccnc(C(F)(F)F)c3)nn2)cc1 [Compound 013, 4-(4-(((2-(trifluoromethyl)pyridin-4-yl)amino)methyl)-1H-1,2,3-triazol-1-yl)benzonitrile]",251 to 1000 nM
8,"FC(F)(F)c1ccc(-n2cc(CNc3ccnc(C(F)(F)F)c3)nn2)cc1 [Compound 014, 2-(Trifluoromethyl)-N-((1-(4-(trifluoromethyl)phenyl)-1H-1,2,3-triazol-4-yl)methyl)pyridin-4-amine]",51 to 250 nM
9,"CSc1cccc(-n2cc(CNc3ccnc(C(F)(F)F)c3)nn2)c1 [Compound 015, N-((1-(3-(Methylthio)phenyl)-1H-1,2,3-triazol-4-yl)methyl)-2-(trifluoromethyl)pyridin-4-amine]",51 to 250 nM
10,"FC(F)(F)c1cc(NCc2cn(-c3ccc(CN4CCOCC4)cc3)nn2)ccn1 [Compound 019, N-((1-(4-(Morpholinomethyl)phenyl)-1H-1,2,3-triazol-4-yl)methyl)-2-(trifluoromethyl)pyridin-4-amine]",251 to 1000 nM
11,"Fc1ccc(-n2cc(CNc3ccnc(C(F)(F)F)c3)nn2)cc1F [Compound 020, N-((1-(3,4-Difluorophenyl)-1H-1,2,3-triazol-4-yl)methyl)-2-(trifluoromethyl)pyridin-4-amine]",51 to 250 nM
12,"COc1cc(-n2cc(CNc3ccnc(C(F)(F)F)c3)nn2)ccc1Br [Compound 023, N-((1-(4-Bromo-3-methoxyphenyl)-1H-1,2,3-triazol-4-yl)methyl)-2-(trifluoromethyl)pyridin-4-amine]",251 to 1000 nM
13,"Fc1cc(Br)ccc1-n1cc(CNc2ccnc(C(F)(F)F)c2)nn1 [Compound 024, N-((1-(4-Bromo-2-fluorophenyl)-1H-1,2,3-triazol-4-yl)methyl)-2-(trifluoromethyl)pyridin-4-amine]",51 to 250 nM
14,"Fc1ccc(-n2cc(CNc3ccnc(C(F)(F)F)c3)nn2)cc1Cl [Compound 027, N-((1-(3-Chloro-4-fluorophenyl)-1H-1,2,3-triazol-4-yl)methyl)-2-(trifluoromethyl)pyridin-4-amine]",251 to 1000 nM
15,"CN(c1ccccc1)c1ccc(-n2cc(CNc3ccnc(C(F)(F)F)c3)nn2)cc1 [Compound 029, N-((1-(4-(Methyl(phenyl)amino)phenyl)-1H-1,2,3-triazol-4-yl)methyl)-2-(trifluoromethyl)pyridin-4-amine]",51 to 250 nM
